In experiment [1] the target is purified recombinant human JAK2 protein (Homo sapiens (Human), UniProt O60674). Briefly: JAK2 kinase-inhibiting activity (mobility shift, LabChip EZ Reader II). The class given is biochemical. The note with it: ATP 10 μM, 25° C., 80 minutes. The protocol:
2) Measurement of JAK2 Kinase-Inhibiting Activity
The activity of the compound of the present invention to inhibit the activity of JAK2 kinase was measured.
Among materials for the measurement of this inhibiting activity, a substrate peptide and a kinase protein were acquired as follows. As such a substrate peptide, FL-Peptide 22 (Perkin Elmer Corp.) was purchased. As such a kinase protein, a purified recombinant human JAK2 protein (Carna Biosciences, Inc.) was purchased.
(§1) The method for measuring the inhibiting activity is as follows. First, a serial dilution of the compound of the present invention was prepared by the same method as that described in the above section regarding JAK1. This serial dilution solution (the final concentration of DMSO upon a kinase reaction: 5.0%) or DMSO (final concentration: 5.0%) was mixed with a solution comprising the substrate peptide (final concentration: 1 μM), magnesium chloride (final concentration: 10 mM) and ATP (final concentration: 10 μM) in a buffer for kinase reaction (15 mM Tris (pH 7.5), 2 mM dithiothreitol and 0.01% Tween 20). Thereafter, a JAK2 protein was further added to the mixed solution, and the obtained mixture was then incubated at 25° C. for 80 minutes to carry out a kinase reaction. To the reaction solution, EDTA was added to a final concentration of 30 mM, so as to terminate the reaction. After termination of the reaction, the measurement and the data analysis were carried out by the same methods as those described in the above section regarding JAK1.

Experiment [2] concerns the target purified recombinant human JAK3 protein (Homo sapiens (Human), UniProt P52333). Briefly: JAK3 kinase-inhibiting activity (mobility shift, LabChip EZ Reader II). To be noted: for IC50: ATP 5 μM, 25° C., 80 minutes. Format: biochemical. On the procedure: 3) Measurement of JAK3 Kinase-Inhibiting Activity
The activity of the compound of the present invention to inhibit the activity of JAK3 kinase was measured.
Among materials for the measurement of this inhibiting activity, a substrate peptide and a kinase protein were acquired as follows. As such a substrate peptide, a substrate peptide for QSS Assist JAK3-MSA assay kit (Carna Biosciences, Inc.) was purchased. As such a kinase protein, a purified recombinant human JAK3 protein (Carna Biosciences, Inc.) was purchased.
as §1, with “5” for “10”, “(20” for “(15”, “HEPES” for “Tris”, “Triton X-100).” for “Tween 20).”, “JAK3” for “JAK2”

Experiment [3] deals with purified recombinant human JAK1 protein (Homo sapiens (Human), UniProt P23458). Briefly: JAK1 kinase-inhibiting activity (mobility shift, LabChip EZ Reader II). Format: biochemical. To be noted: ATP 75 μM, 25° C., 120 minutes. On the procedure: 1) Measurement of JAK1 Kinase-Inhibiting Activity
Sequence of purified recombinant human JAK1 protein (P23458 whole entry): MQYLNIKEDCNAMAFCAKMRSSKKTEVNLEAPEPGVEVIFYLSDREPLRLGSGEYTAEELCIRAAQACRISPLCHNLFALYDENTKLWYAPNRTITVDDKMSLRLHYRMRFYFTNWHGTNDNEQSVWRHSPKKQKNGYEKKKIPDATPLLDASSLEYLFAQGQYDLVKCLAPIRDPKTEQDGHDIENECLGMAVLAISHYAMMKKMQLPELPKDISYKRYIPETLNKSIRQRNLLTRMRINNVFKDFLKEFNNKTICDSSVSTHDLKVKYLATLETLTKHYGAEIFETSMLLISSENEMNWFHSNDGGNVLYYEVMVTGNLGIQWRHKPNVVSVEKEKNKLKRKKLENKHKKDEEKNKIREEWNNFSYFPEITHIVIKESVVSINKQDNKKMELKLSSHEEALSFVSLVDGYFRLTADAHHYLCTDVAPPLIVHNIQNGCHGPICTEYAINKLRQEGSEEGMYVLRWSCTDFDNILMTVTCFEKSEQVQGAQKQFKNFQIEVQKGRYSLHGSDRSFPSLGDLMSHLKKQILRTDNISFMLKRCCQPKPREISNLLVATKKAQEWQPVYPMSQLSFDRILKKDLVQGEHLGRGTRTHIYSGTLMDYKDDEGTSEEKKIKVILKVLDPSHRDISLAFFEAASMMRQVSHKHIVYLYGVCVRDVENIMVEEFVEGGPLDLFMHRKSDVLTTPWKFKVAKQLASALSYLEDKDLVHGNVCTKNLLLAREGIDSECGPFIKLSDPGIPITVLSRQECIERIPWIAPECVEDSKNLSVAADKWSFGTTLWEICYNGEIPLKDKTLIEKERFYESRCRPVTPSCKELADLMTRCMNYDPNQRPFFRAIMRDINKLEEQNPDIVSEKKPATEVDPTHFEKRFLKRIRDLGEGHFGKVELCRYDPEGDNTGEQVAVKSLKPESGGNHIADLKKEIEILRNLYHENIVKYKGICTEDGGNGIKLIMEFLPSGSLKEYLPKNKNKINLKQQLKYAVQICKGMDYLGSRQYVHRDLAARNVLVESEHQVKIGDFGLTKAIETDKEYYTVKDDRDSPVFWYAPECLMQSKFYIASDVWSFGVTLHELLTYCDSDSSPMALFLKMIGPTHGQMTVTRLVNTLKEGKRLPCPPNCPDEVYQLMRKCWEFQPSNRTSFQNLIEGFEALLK
The activity of the compound of the present invention to inhibit the activity of JAK1 kinase was measured.
Among materials for the measurement of this inhibiting activity, a substrate peptide and a kinase protein were acquired as follows. As such a substrate peptide, a substrate peptide for QSS Assist JAK1-MSA assay kit (Carna Biosciences, Inc.) was purchased. As such a kinase protein, a purified recombinant human JAK1 protein (Carna Biosciences, Inc.) was purchased.
The method for measuring the inhibiting activity is as follows. First, the compounds of the present invention were each dissolved in dimethyl sulfoxide (DMSO), and a serial dilution was then prepared using DMSO. Subsequently, a serial dilution solution of the compound (the final concentration of DMSO upon a kinase reaction: 5.0%) or DMSO (final concentration: 5.0%) was mixed with a solution comprising the substrate peptide (final concentration: 1 μM), magnesium chloride (final concentration: 5 mM) and ATP (final concentration: 75 μM) in a buffer for kinase reaction (20 mM HEPES (pH 7.5), 2 mM dithiothreitol and 0.01% Triton X-100). Thereafter, a JAK1 protein was further added to the mixed solution, and the obtained mixture was then incubated at 25° C. for 120 minutes to carry out a kinase reaction. To the reaction solution, EDTA was added to a final concentration of 30 mM, so as to terminate the reaction. Finally, using LabChip EZ Reader II (Perkin Elmer Corp.), an unphosphorylated substrate peptide (S) and a phosphorylated peptide (P) were subjected to microchannel capillary electrophoresis, so that the two peptides were separated from each other and were then detected. The amount of a phosphorylation reaction was obtained based on the heights of the peaks of S and P, and the concentration of the compound capable of inhibiting 50% of the phosphorylation reaction was defined as an IC50 value (nM).

Experiment [4] has as its system human PBMC. Briefly: IL-2-dependent growth of human peripheral blood mononuclear cells (CellTiter-Glo). The class given is cell-based. The note with it: 48 h, IL-2 2 ng/mL stimulation, 2 days. On the procedure:
The activity of the compound of the present invention to inhibit the IL-2-dependent growth reaction of human PBMC, which is caused by JAK3, was measured (Arthritis Rheum. 2010; 62(8): 2283-93).
Using a medium comprising 10 μg/mL PHA-M (Sigma) (which is RPMI-1640 (Sigma) comprising 10% human serum type AB (MP Biomedicals)), human PBMC (C.T.L.) (cell density: 1×10^6 cells/mL) was cultured at 37° C. in a culture vessel comprising 5% carbon dioxide for 3 days. Thereafter, the culture was washed with RPMI-1640 four times, and a medium (RPMI-1640 comprising 10% human serum type AB) was then added to the resultant culture to prepare a cell suspension. The cells (1×10^4 cells per well) and the serially diluted compound of the present invention were added to each well of a 96-well U-bottom microplate, and the thus obtained mixture was then cultured at 37° C. in a culture vessel comprising 5% carbon dioxide for 30 minutes. After completion of the culture, recombinant human IL-2 (Peprotech) was added to the culture to a final concentration of 2 ng/mL, and the obtained mixture was then stirred at 37° C. in a culture vessel comprising 5% carbon dioxide for 2 days (1×10^4 cells/100 μl/each well). After completion of the culture, the resultant was left at a room temperature for 30 minutes, and 100 μl of CellTiter-Glo Luminescent Cell Viability Assay (Promega) was then added to the resultant, followed by stirring it. Thereafter, the reaction mixture was left for 10 minutes, and the amount of a luminescence derived from living cells in each well was then measured using a microplate reader (TECAN). The inhibition rate of the present compound to the cell growth caused by IL-2 stimulation was calculated, and the concentration of the compound capable of inhibiting 50% of the cell growth was defined as an IC50 value (nM).
For orientation: ATP-based viability assays read luminescence as a measure of living cells.

A value given as a limit tells only on which side of the number the result lay.

Sequence of purified recombinant human JAK2 protein (O60674 whole entry): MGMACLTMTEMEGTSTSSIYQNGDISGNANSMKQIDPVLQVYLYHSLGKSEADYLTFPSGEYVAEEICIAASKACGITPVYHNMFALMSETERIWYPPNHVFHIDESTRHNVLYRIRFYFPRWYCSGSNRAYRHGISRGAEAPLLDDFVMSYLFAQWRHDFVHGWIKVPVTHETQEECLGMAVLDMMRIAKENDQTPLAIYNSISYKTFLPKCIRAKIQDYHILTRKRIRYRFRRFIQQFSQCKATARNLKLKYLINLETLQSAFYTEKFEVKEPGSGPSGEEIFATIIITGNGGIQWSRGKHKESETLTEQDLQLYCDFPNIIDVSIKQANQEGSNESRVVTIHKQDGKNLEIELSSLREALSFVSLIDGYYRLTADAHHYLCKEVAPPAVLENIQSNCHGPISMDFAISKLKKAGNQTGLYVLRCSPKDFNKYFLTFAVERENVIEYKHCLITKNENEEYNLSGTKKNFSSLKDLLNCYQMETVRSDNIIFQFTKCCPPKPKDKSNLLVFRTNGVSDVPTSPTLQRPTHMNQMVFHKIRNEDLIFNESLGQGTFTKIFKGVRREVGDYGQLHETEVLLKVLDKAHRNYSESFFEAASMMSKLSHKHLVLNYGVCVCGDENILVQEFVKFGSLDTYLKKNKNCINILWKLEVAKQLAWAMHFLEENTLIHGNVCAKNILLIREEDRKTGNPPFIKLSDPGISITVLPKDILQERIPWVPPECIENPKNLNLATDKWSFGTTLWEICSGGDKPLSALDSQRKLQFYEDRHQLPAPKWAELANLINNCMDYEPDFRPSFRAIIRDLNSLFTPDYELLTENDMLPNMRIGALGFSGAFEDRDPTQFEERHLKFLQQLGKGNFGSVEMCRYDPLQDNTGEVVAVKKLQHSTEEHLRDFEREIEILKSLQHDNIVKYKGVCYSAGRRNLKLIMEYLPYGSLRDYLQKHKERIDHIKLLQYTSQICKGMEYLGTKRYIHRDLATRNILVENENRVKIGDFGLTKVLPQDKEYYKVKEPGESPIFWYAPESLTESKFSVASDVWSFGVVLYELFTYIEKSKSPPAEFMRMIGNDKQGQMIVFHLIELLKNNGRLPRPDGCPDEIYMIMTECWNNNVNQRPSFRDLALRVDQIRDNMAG
Sequence of purified recombinant human JAK3 protein (P52333 whole entry): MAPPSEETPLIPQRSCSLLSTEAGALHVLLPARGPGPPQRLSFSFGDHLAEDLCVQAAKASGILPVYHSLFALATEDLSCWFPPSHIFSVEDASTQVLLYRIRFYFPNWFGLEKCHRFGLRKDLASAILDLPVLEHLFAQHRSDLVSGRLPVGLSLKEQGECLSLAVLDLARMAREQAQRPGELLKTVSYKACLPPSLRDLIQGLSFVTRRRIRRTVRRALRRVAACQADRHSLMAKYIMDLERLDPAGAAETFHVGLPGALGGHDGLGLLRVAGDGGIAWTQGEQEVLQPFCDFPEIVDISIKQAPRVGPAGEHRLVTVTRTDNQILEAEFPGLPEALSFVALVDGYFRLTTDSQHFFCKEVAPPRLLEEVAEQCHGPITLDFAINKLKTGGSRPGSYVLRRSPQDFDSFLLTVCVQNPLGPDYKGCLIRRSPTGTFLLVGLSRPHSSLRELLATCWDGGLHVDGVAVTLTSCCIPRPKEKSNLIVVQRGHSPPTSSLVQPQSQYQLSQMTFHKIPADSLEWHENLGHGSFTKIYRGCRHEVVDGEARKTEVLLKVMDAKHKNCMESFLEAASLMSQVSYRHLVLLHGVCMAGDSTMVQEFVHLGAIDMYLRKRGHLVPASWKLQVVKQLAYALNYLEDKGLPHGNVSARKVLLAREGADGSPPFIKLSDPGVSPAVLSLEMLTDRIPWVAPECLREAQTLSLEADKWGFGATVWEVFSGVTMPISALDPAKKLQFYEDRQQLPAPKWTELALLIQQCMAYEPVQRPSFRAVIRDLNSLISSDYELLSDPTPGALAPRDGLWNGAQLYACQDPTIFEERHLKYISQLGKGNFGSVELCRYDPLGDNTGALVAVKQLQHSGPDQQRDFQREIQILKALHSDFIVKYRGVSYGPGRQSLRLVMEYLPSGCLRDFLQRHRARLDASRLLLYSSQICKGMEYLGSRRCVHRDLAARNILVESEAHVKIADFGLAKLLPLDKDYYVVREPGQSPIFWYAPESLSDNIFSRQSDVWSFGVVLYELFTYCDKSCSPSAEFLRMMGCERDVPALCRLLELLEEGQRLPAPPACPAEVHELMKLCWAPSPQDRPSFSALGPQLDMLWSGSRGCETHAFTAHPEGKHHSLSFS

Regarding `C=CC(=O)N[C@H]1CCC[C@@H](c2ncnc3[nH]cc(-c4ccco4)c23)C1` [Comparative Example 11(a), N-((1S,3R)-3-(5-(Furan-2-yl)-7H-pyrrolo[2,3-d]pyrimidin-4-yl)cyclohexyl)acrylamide, reference compound], the IC50 – broadly, the concentration that gives 50% inhibition – in experiment [1] is 2440 nM; in experiment [2], 21 nM; in experiment [3], over 10000 nM; in experiment [4], over 3000 nM.

In the case of `C=CC(=O)NC1C=C(c2ncnc3[nH]cc(-c4ccccc4)c23)CCC1` (centres unmarked) [Compound 12, N-(3-(5-Phenyl-7H-pyrrolo[2,3-d]pyrimidin-4-yl)cyclohex-2-en-1-yl)acrylamide], the figures for the IC50 in experiment [1], in experiment [2] and in experiment [3] were 870 nM, 0.35 nM and 3200 nM, respectively.

For `C=CC(=O)NC1C=C(c2ncnc3[nH]cc(-c4ccoc4)c23)CCC1` (centres unmarked) [Compound 16, N-(3-(5-(Furan-3-yl)-7H-pyrrolo[2,3-d]pyrimidin-4-yl)cyclohex-2-en-1-yl)acrylamide], the values for the concentration for half-maximal inhibition (IC50) in experiment [1], in experiment [2] and in experiment [3] were 1000 nM, 0.77 nM and 4900 nM, respectively.

As for `C=CC(=O)NC1C=C(c2ncnc3[nH]cc(-c4cccs4)c23)CCC1` (centres unmarked) [Compound 13, N-(3-(5-(Thiophen-2-yl)-7H-pyrrolo[2,3-d]pyrimidin-4-yl)cyclohex-2-en-1-yl)acrylamide], the IC50 is 490 nM in experiment [1], under 0.3 nM in experiment [2], 3200 nM in experiment [3] and 110 nM in experiment [4].

Regarding `C=CC(=O)NC1CCC=C(c2ncnc3[nH]cc(-c4ccsc4)c23)C1` (centres unmarked) [Compound 3, N-(3-(5-(Thiophen-3-yl)-7H-pyrrolo[2,3-d]pyrimidin-4-yl)cyclohex-3-en-1-yl)acrylamide], the 50% inhibitory concentration (IC50) in experiment [1] was 850 nM; in experiment [2] it was under 0.3 nM; in experiment [3], 1500 nM.

In the case of `C=C(C)C(=O)NC1CCC=C(c2ncnc3[nH]cc(-c4ccccc4)c23)C1` (centres unmarked) [Comparative Example 1, N-(3-(5-Phenyl-7H-pyrrolo[2,3-d]pyrimidin-4-yl)cyclohex-3-en-1-yl)methacrylamide, reference compound], the figures for the IC50 in experiment [2] and in experiment [3] were 44 nM and 880 nM, respectively. Besides, the “JAK3-inhibiting activity attenuated in comparison to the compound of the present invention” value (“JAK3-inhibiting activity attenuated” below) in experiment [2] (in terms of IC50 value) is at least 20 times.

As to `C=CC(=O)NC1CCC=C(c2ncnc3[nH]cc(-c4ccc(C)cc4)c23)C1` (centres unmarked) [Comparative Example 4, N-(3-(5-(p-Tolyl)-7H-pyrrolo[2,3-d]pyrimidin-4-yl)cyclohex-3-en-1-yl)acrylamide, reference compound], the IC50 in experiment [4] is over 1000 nM.

For `C=CC(=O)NC1C=C(c2ncnc3[nH]cc(-c4ccccc4)c23)CC1` (centres unmarked) [Compound 10, N-(3-(5-Phenyl-7H-pyrrolo[2,3-d]pyrimidin-4-yl)cyclopent-2-en-1-yl)acrylamide], the values for the 50% inhibitory concentration (IC50) in experiment [1] and in experiment [2] were 660 nM and 0.68 nM, respectively.

On to `C1=C(c2ncnc3[nH]ccc23)CCCC1` [Comparative Example 10, 4-(Cyclohex-1-en-1-yl)-7H-pyrrolo[2,3-d]pyrimidine, reference compound], for which the concentration for half-maximal inhibition (IC50) turned out to be 166 nM in experiment [1], 125 nM in experiment [2] and 414 nM in experiment [3]. Further, the “JAK3-inhibiting activity attenuated” value in experiment [2] (in terms of IC50 value) was at least 100 times. The “selectivity to JAK3 versus JAK1 or JAK2” value in experiment [2] (in terms of IC50 value) is given as “not observed”.

On to `C=CC(=O)NC1CCC=C(c2ncnc3[nH]cc(-c4ccoc4)c23)C1` (centres unmarked) [Compound 4, N-(3-(5-(Furan-3-yl)-7H-pyrrolo[2,3-d]pyrimidin-4-yl)cyclohex-3-en-1-yl)acrylamide], for which the half-inhibitory concentration (IC50) in experiment [1] was found to be 1300 nM; in experiment [2] it was 0.42 nM; in experiment [3], 2900 nM.

`C=CC(=O)NC1C=C(c2ncnc3[nH]cc(-c4ccco4)c23)CCC1` (centres unmarked) [Compound 15, N-(3-(5-(Furan-2-yl)-7H-pyrrolo[2,3-d]pyrimidin-4-yl)cyclohex-2-en-1-yl)acrylamide]: the IC50 in experiment [1] came out at 450 nM; in experiment [2] it was 0.33 nM; in experiment [3], 2600 nM.

As for `C/C=C/C(=O)NC1CCC=C(c2ncnc3[nH]cc(-c4ccccc4)c23)C1` (centres unmarked) [Comparative Example 2, (E)-N-(3-(5-Phenyl-7H-pyrrolo[2,3-d]pyrimidin-4-yl)cyclohex-3-en-1-yl)but-2-enamide, reference compound], the 50% inhibitory concentration (IC50) in experiment [2] was determined as 27 nM; in experiment [3], 730 nM. Moreover, the “JAK3-inhibiting activity attenuated” value in experiment [2] (in terms of IC50 value) is at least 20 times.

`C=CC(=O)NC1CCC=C(c2ncnc3[nH]cc(-c4cc5ccccc5o4)c23)C1` (centres unmarked) [Comparative Example 9, N-(3-(5-(Benzofuran-2-yl)-7H-pyrrolo[2,3-d]pyrimidin-4-yl)cyclohex-3-en-1-yl)acrylamide, reference compound] returned an IC50 in experiment [4] of over 1000 nM.

Consider `C=CC(=O)NC1CCC=C(c2ncnc3[nH]cc(-c4ccccc4)c23)C1` (centres unmarked) [Compound 1, N-(3-(5-phenyl-7H-pyrrolo[2,3-d]pyrimidin-4-yl)cyclohex-3-en-1-yl)acrylamide], for which the IC50 in experiment [1] is 470 nM; in experiment [2] it was under 0.3 nM; in experiment [3] it was 880 nM.

As to `C=CC(=O)NC1CCC=C(c2ncnc3[nH]cc(-c4ncccn4)c23)C1` (centres unmarked) [Comparative Example 8, N-(3-(5-(Pyrimidin-2-yl)-7H-pyrrolo[2,3-d]pyrimidin-4-yl)cyclohex-3-en-1-yl)acrylamide, reference compound], the IC50 was over 10000 nM in experiment [1] and 21.4 nM in experiment [2]. For the same compound, the “JAK3-inhibiting activity attenuated” value in experiment [2] (in terms of IC50 value) is listed as at least 20 times.
